Values joined by “and” are separate entries in the source; they are usually repeats but may differ in a detail not shown here. Equal entries are not always repeated.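 In this assay, cells in 96-well plates receive the compound at five concentrations for 48 hours. Endpoints are linearly interpolated between the surrounding concentrations. GI50 is the concentration that inhibits growth by half. The concentration for full growth arrest is given as TGI.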
Assays:
Assay in all cases: NCI anticancer screen, dose series, 48 h
OVCAR-8 ovarian = tested on: OVCAR-8 ovarian
SW-620 colon = tested on: SW-620 colon
HT29 colon = tested on: HT29 colon
OVCAR-3 ovarian = tested on: OVCAR-3 ovarian
HOP-92 NSCLC = tested on: HOP-92 NSCLC
MCF7 breast = tested on: MCF7 breast
PC-3 prostate = tested on: PC-3 prostate
BT-549 breast = tested on: BT-549 breast
UO-31 renal = tested on: UO-31 renal
HCC-2998 colon = tested on: HCC-2998 colon

Row | Structure (SMILES) | GI50 (OVCAR-8 ovarian) | TGI (OVCAR-8 ovarian) | GI50 (SW-620 colon) | TGI (SW-620 colon) | GI50 (HT29 colon) | TGI (HT29 colon) | GI50 (OVCAR-3 ovarian) | TGI (OVCAR-3 ovarian) | GI50 (HOP-92 NSCLC) | TGI (HOP-92 NSCLC) | GI50 (MCF7 breast) | TGI (MCF7 breast) | GI50 (PC-3 prostate) | TGI (PC-3 prostate) | GI50 (BT-549 breast) | TGI (BT-549 breast) | GI50 (UO-31 renal) | TGI (UO-31 renal) | GI50 (HCC-2998 colon) | TGI (HCC-2998 colon)
1 | CC(C)Nc1cc(-c2c[nH]c(C(=O)N[C@H](CO)c3cccc(Cl)c3)c2)c(Cl)cn1 | 7.75 µM and 8.82 µM | 24.3 µM and > 10 µM | 0.249 µM and 0.296 µM | 16.7 µM and > 10 µM | 0.0894 µM and 0.0951 µM | 11.6 µM and > 10 µM | 4.66 µM and > 9.46 µM | 18.8 µM and > 10 µM | 0.312 µM and 0.233 µM | 2.84 µM and 1.81 µM | 2.16 µM and 1.62 µM | 19.1 µM and > 10 µM | 3.96 µM and > 5.54 µM | 18.4 µM and > 10 µM | 3.19 µM and > 5.25 µM | 15.7 µM and > 10 µM | 0.986 µM and 0.838 µM | 14.5 µM and > 10 µM | 0.19 µM and 0.209 µM | 13.8 µM and > 10 µM
2 | CC(C)c1c(-c2ccccc2)nc2c(C#N)c[nH]n2c1=O | 32.2 µM | > 100 µM | 35.3 µM | > 100 µM | 33.9 µM | > 100 µM | 25.2 µM | 63.8 µM | 7.85 µM | 49.6 µM | 26.2 µM | > 91.5 µM | 25.2 µM | > 73.5 µM | 26.2 µM | > 95.5 µM | 26.5 µM | 98.6 µM | 29 µM | > 100 µM
3 | CC(C)c1cnn2c(NCc3ccccc3)cc(NC[C@H]3CCNC[C@@H]3O)nc12 | 0.555 µM and 0.745 µM | 11.6 µM and 8.68 µM | 0.239 µM and 0.432 µM | 10.4 µM and 11 µM | 0.285 µM and 0.369 µM | 10.3 µM and 5.73 µM | 0.489 µM and 0.707 µM | 8.66 µM and 4.17 µM | 0.242 µM and 1.31 µM | 4.22 µM and 5.54 µM | 0.13 µM and 0.186 µM | 4.83 µM and 4.03 µM | 0.363 µM and 0.587 µM | 6.73 µM and 10.4 µM | 1.81 µM and 1.27 µM | 4.4 µM and 3.08 µM | 2 µM and 2.65 µM | 11.8 µM and 12 µM | 0.534 µM and 0.645 µM | 5.55 µM and 3.51 µM
4 | S=c1snc2n1CCN2 | > 100 µM | > 100 µM | 40.5 µM | > 100 µM | 65.9 µM | > 100 µM | > 100 µM | > 100 µM | > 100 µM | > 100 µM | 39.3 µM | > 100 µM | 65.4 µM | > 100 µM | > 100 µM | > 100 µM | > 100 µM | > 100 µM | 19.3 µM | 74.7 µM
5 | O=C(NOC[C@H](O)CO)c1ccc(F)c(F)c1Nc1ccc(I)cc1F | 21.7 µM and > 7.5 µM | > 100 µM | < 0.01 µM and 0.00315 µM | > 100 µM | < 0.01 µM and 0.00291 µM | > 100 µM | 37.6 µM and > 10 µM | > 100 µM | 0.0377 µM and 0.0201 µM | 0.613 µM and 0.43 µM | > 76.5 µM | > 100 µM | 62.6 µM and > 10 µM | > 100 µM | 10.8 µM and > 10 µM | > 31.4 µM | 0.302 µM and 0.0357 µM | > 72.2 µM | – | 2.24 µM
6 | CCOC(=O)Nc1nc2ccc(OC)cc2s1 | > 100 µM | > 100 µM | > 100 µM | > 100 µM | > 100 µM | > 100 µM | > 100 µM | > 100 µM | > 100 µM | > 100 µM | > 100 µM | > 100 µM | > 100 µM | > 100 µM | > 100 µM | > 100 µM | > 100 µM | > 100 µM | > 100 µM | > 100 µM
7 | COc1cc2nc(SCc3cc(OC)c(OC)c(OC)c3)n(Cc3ccccc3)c(=O)c2cc1OC | 6.71 µM | > 100 µM | 2.5 µM | > 100 µM | 2.76 µM | > 100 µM | 2.24 µM | 8.37 µM | 1.79 µM | 8.97 µM | 0.742 µM | > 100 µM | 3.27 µM | > 100 µM | 3.32 µM | 20.7 µM | 3.9 µM | > 100 µM | 3.71 µM | > 100 µM
8 | O=C(/C=C/C12c3ccccc3C(c3ccccc31)C1C(=O)NC(=O)C12)c1ccc(Cl)cc1Cl (centres undefined) | 1.88 µM | 3.98 µM | 2.19 µM | 4.58 µM | 2.02 µM | 4.41 µM | 1.71 µM | 3.16 µM | 1.5 µM | 3.3 µM | 1.72 µM | 3.79 µM | 1.55 µM | 3.08 µM | 1.66 µM | 3.27 µM | 1.4 µM | 2.71 µM | 1.81 µM | 3.41 µM
9 | COc1ccccc1C#Cc1ccccc1C#CCCCCO | 22.6 µM | 74.9 µM | 19.2 µM | 46.4 µM | 8.58 µM | 29 µM | 19.8 µM | 47.2 µM | 13.7 µM | 31.1 µM | 31.7 µM | > 100 µM | 15.4 µM | 42.2 µM | 15.5 µM | 33.4 µM | 16.8 µM | 32.8 µM | 17.9 µM | 35.4 µM
